Columns and labels:
[1] = molecular target: STING (Canis lupus familiaris, UniProt A0A8I3MH52); experiment: Dog whole blood (dWB) assay, IFNb secretion by ELISA; type: cell-based; conditions: canine Interferon-beta (IFNb) ELISA, 4 h incubation at 37° C.
Method: For the detection of STING activation in physiological environment dog whole blood (dWB) was stimulated by the cyclic dinucleotide cGAMP or a test compound. Pathway activity was monitored by measuring the IFNb production.
Compounds were delivered as 10 mM DMSO solution, diluted and transferred by using an Echo acoustic dispenser to the 384 well assay plate (Greiner #781182), pre-filled with 10 μl 1×HBSS in each well (10×HBSS (+Ca/+Mg), #14065-049, Gibco). Typically, 8 concentrations were used with the highest concentration at 10 μM in the final assay volume followed by approximately 1:4 dilution steps. DMSO concentration was set to 0.1% in the final assay volume. The 384-well assay plate contained 20 test compounds and DMSO in control and cGAMP standard wells. The dog whole blood was collected as Na-Citrate blood (e.g., 3.8% in Monovettes from Sarstedt) and kept at 4° C. overnight until use in the assay. 80 μl of the whole blood samples were transferred to each well of the 384-well assay plates filled with compound/1×HBSS. Blood plates were kept at room temperature for 60 minutes and continuous shaking with 450 rpm, covered with the lid, but not sealed. A 10×cGAMP assay solution was diluted from a 2 mM stock solution in 1×HBSS immediately before use at room temperature. 10 μl of the 10×cGAMP/HBSS were added to the high control wells, whereas HBSS only was added to all compound and low control wells. After covering assay plates with the lid, blood plates were kept for a 4 h incubation at 37° C. in the incubator, without shaking. For the detection of IFNb in dog plasma the ELISA Kit for Canine Interferon Beta (Biotrend #SEA222Ca) was used. Whole blood assay plates were centrifuged at 1000 g for 10 minutes at 8° C. […] was transferred with a 96 well pipetting robotics from the 384 well whole blood plate to the corresponding 96 well ELISA plate, pre-filled with 60 μl assay diluent in each well. Plates were sealed with microplate seals and kept at 4° C. overnight again. ELISA plates were brought to room temperature, followed by a 1 h incubation at 37° C. in the incubator. Detection Reagent A working solution was prepared by diluting Detection Reagent A 1:100 in Assay Reagent A. Liquid was then removed from the 96 well ELISA plate to add 100 μL Detection Reagent A working solution to each well. ELISA plates were covered with the plate sealer and incubated for 1 hour at 37° C. in the incubator. The 1× Wash buffer was prepared by diluting the 30× Wash Buffer Concentrate in H2O. Detection Reagent B working solution was prepared by diluting Detection Reagent B 1:100 in Assay Reagent B. The ELISA plates were washed three times with 350 μl wash buffer and afterwards inverted and blotted against absorbent paper to remove any liquid. 100 μL of Detection Reagent B working solution was added to each well of the ELISA plates, which are then covered with the plate sealer and incubated for 30 minutes at 37° C. in the incubator. After incubation the ELISA assay plates were washed five times with 350 μl wash buffer and were again inverted and blotted against absorbent paper to remove any remaining liquid. 90 μL of TMB Substrate was added to each well of the ELISA plates, which were then covered with the plate sealer and incubated for 15 minutes at 37° C. in the incubator. The reaction was stopped by adding 50 μL stop solution and absorbance was measured at 450 nm immediately.
For data evaluation and calculation, % control calculation of each well was based on the mean of high (cGAMP stimulated control) and mean of low (unstimulated control) controls by using the following standard 4 parameter logistic regression formula:
[y=(a−d)/(1+(x/c)^b)+d] • a=low value, • d=high value, • x=conc M, • c=EC50 M, • b=slope. Dog Liver Microsome (dLM) Assay

[2] = system: dog STING (dSTING); experiment: Dog differential scanning fluorimetry (DSF) assay, thermal shift of dog STING protein; type: binding; conditions: DSF (dDSF); 100 μM compound, 3 μM dog STING protein; Tm with ligand minus Tm of protein alone
Procedure, shortened: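 Dog STING residues 149–375, His-tag removed by TEV, tested at 3 μM with 100 μM compound, 5× SYPRO Orange and 2% DMSO in 20 mM Tris, 150 mM NaCl, pH 7.5. Heated 15–95 °C in 0.5 °C steps. Tm from Boltzmann fit, duplicates averaged; ΔTm relative to protein alone.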

STING, sequence (A0A8I3MH52 1-374): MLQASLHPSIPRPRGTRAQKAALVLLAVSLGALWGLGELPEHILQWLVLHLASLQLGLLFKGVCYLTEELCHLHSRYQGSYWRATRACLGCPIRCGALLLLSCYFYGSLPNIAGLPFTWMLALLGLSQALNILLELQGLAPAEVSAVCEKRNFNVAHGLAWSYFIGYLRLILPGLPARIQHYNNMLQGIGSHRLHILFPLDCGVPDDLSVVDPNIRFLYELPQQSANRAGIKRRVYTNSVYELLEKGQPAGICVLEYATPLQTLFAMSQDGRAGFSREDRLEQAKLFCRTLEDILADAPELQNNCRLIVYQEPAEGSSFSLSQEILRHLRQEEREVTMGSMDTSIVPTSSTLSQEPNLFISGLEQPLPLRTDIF

Row | Compound | EC50 [1] [µM] | Delta TM [2] [°C]
1 | Cc1cccc2c(-c3c(F)ccc4nn(C)cc34)nn(-c3ccc(N4CC5CCC4CC5C(=O)O)nc3)c12 (single isomer, unassigned) [Example 28-4] | 0.206 | 37.9
2 | CC(=O)N1CCN(c2ccc(-n3nc(-c4c(F)ccc5nn(C)cc45)c4cccc(C)c43)cn2)CC1 [Example 29, 1-[4-(5-{5″-fluoro-2″,7-dimethyl-1H,2″H-[3,4″-biindazol]-1-yl}pyridin-2-yl)piperazin-1-yl]ethan-1-one] | 0.14 | 32.0
3 | CC(=O)N1CCN(c2ccc(-n3nc(-c4c(F)cc(F)c5nn(C)cc45)c4cccc(C)c43)cn2)CC1 [Example 49, 1-[4-(5-{5″,7″-difluoro-2″,7-dimethyl-1H,2″H-[3,4″-biindazol]-1-yl}pyridin-2-yl)piperazin-1-yl]ethan-1-one] | 0.416 | 30.5
4 | Cc1cccc2c(-c3cccc4nn(C)c(F)c34)nn(-c3ccc(N4CC[C@H](CC(=O)O)C4)nc3)c12 [Example 17, 2-[(3R)-1-(5-{3″-fluoro-2″,7-dimethyl-1H,2″H-[3,4″-biindazol]-1-yl}pyridin-2-yl)pyrrolidin-3-yl]acetic acid] | 0.185 | 35.8
5 | Cc1cccc2c(-c3cccc4nn(C)c(F)c34)nn(-c3ccc(N4CCN(C=O)CC4)nc3)c12 [Example 9, 4-(5-{3″-Fluoro-2″,7-dimethyl-1H,2″H-[3,4″-biindazol]-1-yl}pyridin-2-yl)piperazine-1-carbaldehyde] | 0.192 | 28.5
6 | Cc1cccc2c(-c3ccc(F)c4nn(C)c(F)c34)nn(-c3ccc(N4CCC(C(=O)O)CC4)nc3)c12 [Example 53, 1-(5-{3″,7″-difluoro-2″,7-dimethyl-1H,2″H-[3,4″-biindazol]-1-yl}pyridin-2-yl)piperidine-4-carboxylic acid] | 0.654 | 33.0
7 | Cc1c(F)ccc2c(-c3cccc4nn(C)c(F)c34)nn(-c3ccc(N4C[C@@H]5[C@H](C4)[C@H]5C(=O)O)nc3)c12 [Example 11, (1R,5S,6R)-3-(5-{3″,6-Difluoro-2″,7-dimethyl-1H,2″H-[3,4″-biindazol]-1-yl}pyridin-2-yl)-3-azabicyclo[3.1.0]hexane-6-carboxylic acid] | 0.458 | 34.8
8 | Cc1cccc2c(-c3cc(F)cc4nn(C)cc34)nn(-c3ccc(N4C[C@@H]5[C@H](C4)[C@H]5C(=O)O)nc3)c12 [Example 34, (1R,5S,6R)-3-(5-{6″-fluoro-2″,7-dimethyl-1H,2″H-[3,4″-biindazol]-1-yl}pyridin-2-yl)-3-azabicyclo[3.1.0]hexane-6-carboxylic acid] | 3.28 | 24.8
9 | Cc1cc(F)cc2c(-c3cccc4nn(C)c(F)c34)nn(-c3ccc(N4CCC(C(=O)O)CC4)nc3)c12 [Example 58, 1-(5-{3″,5-difluoro-2″,7-dimethyl-1H,2″H-[3,4″-biindazol]-1-yl}pyridin-2-yl)piperidine-4-carboxylic acid] | 0.207 | 33.0
10 | Cc1cc(F)cc2c(-c3c(F)ccc4nn(C)cc34)nn(-c3ccc(N4CCC(C(=O)O)CC4)nc3)c12 [Example 62, 1-(5-{5,5″-difluoro-2″,7-dimethyl-1H,2″H-[3,4″-biindazol]-1-yl}pyridin-2-yl)piperidine-4-carboxylic acid] | 0.295 | 38.0
11 | CC(=O)N1CCN(c2ccc(-n3nc(-c4c(F)ccc5nn(C)cc45)c4cc(F)cc(C)c43)cn2)CC1 [Example 63, 1-[4-(5-{5,5″-difluoro-2″,7-dimethyl-1H,2″H-[3,4″-biindazol]-1-yl}pyridin-2-yl)piperazin-1-yl]ethan-1-one] | 0.0968 | 27.4
12 | CC(=O)N1C[C@H]2C[C@@H]1CN2c1ccc(-n2nc(-c3c(F)cc(F)c4nn(C)cc34)c3cccc(C)c32)cn1 [Example 51, 1-[(1R,4R)-5-(5-{5″,7″-difluoro-2″,7-dimethyl-1H,2″H-[3,4″-biindazol]-1-yl}pyridin-2-yl)-2,5-diazabicyclo[2.2.1]heptan-2-yl]ethan-1-one] | 0.67 | 29.0
13 | CC(=O)N1CC2CCC1CN2c1ccc(-n2nc(-c3cccc4nn(C)c(F)c34)c3cccc(C)c32)cn1 (stereo not drawn) [Example 23, 1-[5-(5-{3″-fluoro-2″,7-dimethyl-1H,2″H-[3,4″-biindazol]-1-yl}pyridin-2-yl)-2,5-diazabicyclo[2.2.2]octan-2-yl]ethan-1-one] | 0.219 | 29.6
14 | Cc1cccc2c(-c3c(F)ccc4nn(C)cc34)nn(-c3ccc(N4CC[C@@H](CC(=O)O)C4)nc3)c12 [Example 24, 2-[(3S)-1-(5-{5″-fluoro-2″,7-dimethyl-1H,2″H-[3,4″-biindazol]-1-yl}pyridin-2-yl)pyrrolidin-3-yl]acetic acid] | 0.27 | 35.5
15 | Cc1cccc2c(-c3cccc4nn(C)c(F)c34)nn(-c3ccc(N4CCC(C(=O)O)CC4)nc3)c12 [Example 2, 1-(5-{3″-Fluoro-2″,7-dimethyl-1H,2″H-[3,4″-biindazol]-1-yl}pyridin-2-yl)piperidine-4-carboxylic acid] | 0.236 | 34.5
16 | Cc1cccc2c(-c3c(F)ccc4nn(C)cc34)nn(-c3ccc(N4CCC(C(=O)O)CC4)nc3)c12 [Example 6, 1-(5-{5″-Fluoro-2″,7-dimethyl-1H,2″H-[3,4″-biindazol]-1-yl}pyridin-2-yl)piperidine-4-carboxylic acid] | 0.243 | 35.5
17 | Cc1cccc2c(-c3cccc4nn(C)c(F)c34)nn(-c3ccc(N4C[C@H]5C[C@@H]4C[C@@H]5C(=O)O)nc3)c12 [Example 73-1, (1R,4S,5S)-2-(5-{3″-fluoro-2″,7-dimethyl-1H,2″H-[3,4″-biindazol]-1-yl}pyridin-2-yl)-2-azabicyclo[2.2.1]heptane-5-carboxylic acid] | 0.0875 | 34.5
18 | CC(=O)N1C[C@H]2C[C@@H]1CN2c1ccc(-n2nc(-c3cccc4nn(C)c(F)c34)c3cccc(C)c32)cn1 [Example 22, 1-[(1R,4R)-5-(5-{3″-fluoro-2″,7-dimethyl-1H,2″H-[3,4″-biindazol]-1-yl}pyridin-2-yl)-2,5-diazabicyclo[2.2.1]heptan-- 2-yl]ethan1-one] | 0.244 | 30.4
19 | Cc1cccc2c(-c3c(F)cc(F)c4nn(C)cc34)nn(-c3ccc(N4CC5CCC4CC5C(=O)O)nc3)c12 (single isomer, unassigned) [Example 48-3] | 0.184 | 35.4
20 | Cc1cc(F)cc2c(-c3c(F)ccc4nn(C)cc34)nn(-c3ccc(N4C[C@@H]5[C@H](C4)[C@H]5C(=O)O)nc3)c12 [Example 14, (1R,5S,6R)-3-(5-{5,5″-Difluoro-2″,7-dimethyl-1H,2″H-[3,4″-biindazol]-1-yl}pyridin-2-yl)-3-azabicyclo[3.1.0]hexane-6-carboxylic acid] | 0.391 | 38.0
21 | Cc1cccc2c(-c3c(F)ccc4nn(C)cc34)nn(-c3ccc(N4C[C@H]5C[C@@H]4C[C@@H]5C(=O)O)nc3)c12 [Example 27-2, (1R,4S,5S)-2-(5-{5″-fluoro-2″,7-dimethyl-1H,2″H-[3,4″-biindazol]-1-yl}pyridin-2-yl)-2-azabicyclo[2.2.1]heptane-5-carboxylic acid] | 0.247 | 35.6

Source: patent publication US20240174641A1, “HETEROCYCLIC COMPOUNDS CAPABLE OF […]” (Boehringer Ingelheim International GmbH, priority 2022, published 2024)
